From PMC8062851, “2-Methoxyestradiol and its derivatives inhibit store-operated Ca^2+ entry in T cells: Identification of a new and potent inhibitor” (Biochimica et Biophysica Acta. Molecular Cell Research, 2021) come the findings set out here.

Like-named read-outs stand apart in the source and are kept apart here.

Test [1] concerns SOCE in human Jurkat T cells. The test can be described thus: cells. The format is cell-based. How it is done: Jurkat T-lymphocytes, primary human CD4^+ T cells and H1299 cells were pelleted at 450 ×g for 5 min, rat TMBP at 300 ×g for 8 min at room temperature and were resuspended in 1 ml of either standard JMP medium (Jurkat, H1299 and human CD4^+ T cells) or standard DMEM based medium containing 10% fetal bovine serum (FBS) (v/v) (TMBP cells). Resting TMBP cells (day 5–7 after re-stimulation) after the second to fifth re-stimulation were thawed from liquid nitrogen 12 to 40 h prior to Fura2-loading. After pre-incubation for 5 min at 37 °C, cells were incubated with 4 μM Fura2-AM for 15 min at 37 °C. After addition of the dye, cells were kept in the dark. Afterwards, cells and the dye were diluted by addition of 4 ml standard medium and incubated for another 15 min. Cells were washed twice in Ca^2+ buffer (140 mM NaCl, 5 mM KCl, 1 mM MgSO4, 1 mM CaCl2, 1 mM NaH2PO4, 20 mM HEPES, 5.5 mM glucose; pH 7.4 (NaOH), sterile filtered) and were diluted to a concentration of 2*10^6 cells/ml. Subsequently, cells were kept at room temperature for 20 min for de-esterification before the start of the first measurement.
In experiments using a Ca^2+ free/Ca^2+ re-addition protocol, cells were pelleted as described for Fura2 loading and Ca^2+ buffer was exchanged by 1 ml nominal Ca^2+ free buffer (140 mM NaCl, 5 mM KCl, 1 mM MgSO4, 1 mM NaH2PO4, 20 mM HEPES, 5.5 mM glucose; pH 7.4 (NaOH), sterile filtered) immediately before starting the measurement. The measurement was controlled by FL Solutions (Version 4.1, Hitachi High-Technologies Corporation). Fura2 was alternatively excited every 2 s at 340 ± 5 nm and 380 ± 5 nm, each 400 ms apart.
Finally, every measurement was calibrated using 0.1% (v/v) Triton X-100 to obtain a maximal ratio and 4 mM EGTA and 30 mM Tris to obtain a minimal ratio.
R is the ratio between F340 and F380. Rmin and Rmax are the minimal and maximal ratio, respectively, obtained by calibration. F380 min and F380 max are the minimal and maximal fluorescence intensity at 380 nm EX during the calibration. Finally, artefacts due to compound additions that usually could easily be identified and lasted about 8 s were deleted from the tracings using FL Solutions (Version 4.1, Hitachi High-Technologies Corporation). The fluorescence intensities of deleted data points were interpolated from those just before and after the deleted time points.
Estradiol, 2ME2 and 2ME2 derivatives were dissolved in DMSO at a concentration of 50 mM and stored at −20 °C for up to 6 months. For concentration-response curves, stock solution was freshly diluted with DMSO to obtain the same DMSO concentration of 0.2% (v/v) for all conditions.
The compound concentrations were then log transformed. Finally, the data were fitted to a corresponding nonlinear fit of variable slope using Prism 6 (GraphPad Software, USA).

The subject of a further test is IP3 receptors. Description: IP3-evoked Ca2+ release in permeabilized Jurkat T cells. The format is cell-based, human. The conditions noted are these: 2 μM IP3. The protocol:
(§1) 3 ∗ 10^7 Jurkat T-lymphocytes per measurement were centrifuged at 450 ×g for 5 min at room temperature. The pellet was rinsed twice, each time using 10 ml permeabilization buffer 1 (120 mM KCl, 10 mM NaCl, 1.2 mM MgCl2, 0.533 mM CaCl2, 1 mM EGTA and 10 mM HEPES, pH 7.2 (KOH), sterile filtered). Subsequently, the pellet was resuspended in 2 ml permeabilization buffer 1 containing 80 μg/ml saponin (Fluka) and the cells were incubated for 10 min at 37 °C. Subsequently, the cells were centrifuged at 450 ×g for 5 min at room temperature and the cell pellet was washed once in 10 ml permeabilization buffer 2 (120 mM KCl, 10 mM NaCl, 1.2 mM MgCl2 and 10 mM HEPES, pH 7.2 (KOH), sterile filtered). Finally, the cells were taken up in 1 ml permeabilization buffer 2, placed into a cuvette and measured at the fluorescence spectrophotometer. Before the start of the measurement, 0.5 μl of 1 mM Fura2 free acid (dissolved in pure water, final concentration: 0.5 μM), 5 μl of 5 mg/ml creatinkinase (dissolved in permeabilization buffer 2, final concentration: 25 μg/ml, 20 U/ml, Roche) and 10 μl of 2 M creatin phosphate (dissolved in permeabilization buffer 2, final concentration: 20 mM, Calbiochem) were added. Fura2 was used to measure the Ca^2+ concentration and creatinkinase and creatin phosphate were used as ATP-regenerating system. The measurement was controlled by FL Solutions (Version 4.1, Hitachi High-Technologies Corporation). Fura2 was alternatively excited every 2 s at 340 ± 5 nm and 380 ± 5 nm, each 400 ms apart. Fluorescence intensity was measured at an emission wavelength of 495 ± 5 nm for both excitation wavelengths. […] Ca^2+ concentrations were calculated according to Grynkiewicz et al. as described earlier in Section 2.4.
(§2) As a quantitative read-out for inhibition of IP3 receptors, the peak [Ca^2+] after IP3 addition was subtracted from the mean [Ca^2+] between 25 and 75 s before IP3 addition (dPeak). […] The rate constant K of the fitted data was used as a quantitative read-out for SERCA pump activity and its inhibition.

Another test relates to SERCA pumps. The test can be described thus: SERCA activity (ATP-induced Ca2+ reuptake) in permeabilized Jurkat T cells. The test is classed as cell-based, human. How it is done: as §1, §2
Setting [2] is: Homo sapiens, Jurkat, Jurkat T cells, Ca2+ free/Ca2+ re-addition protocol, plateau 425-475 s after re-addition of 1 mM Ca2+, read-out: IC50 of SOCE inhibition.
Setting [3] is: Jurkat T cells, Ca2+ free/Ca2+ re-addition protocol.
Setting [4] is: Homo sapiens, Jurkat, read-out: IC50 of SOCE inhibition, Jurkat T cells, Ca2+ free/Ca2+ re-addition protocol, plateau 425-475 s after re-addition of 1 mM Ca2+.
The mark [5] stands for this setting: Jurkat T cells, Ca2+ free/Ca2+ re-addition protocol, plateau 425-475 s after re-addition of 1 mM Ca2+, read-out: IC50 of SOCE inhibition.

In general, IC50 refers to the concentration that inhibits the measured activity by half. `C[C@]12CC[C@@H]3c4ccc(O)cc4CC[C@H]3[C@@H]1CC[C@@H]2O` [E2, estradiol]: in test [1] (setting [2]), the half-inhibitory concentration (IC50) worked out at 55 µM.
`COc1cc2c(cc1OS(N)(=O)=O)CCC1C2CCC2(C)C(O)CCC12` (centres unmarked) [STX68]: the 50% inhibitory concentration (IC50) in test [1] (Homo sapiens, Jurkat, read-out: IC50 of SOCE inhibition) amounted to 25 µM.
For `CCc1cc2c(cc1O)CCC1C2CCC2(C)C(O)CCC12` (centres unmarked) [STX139, 2-ethyl-estradiol], the IC50 in test [1] (setting [2]) is ~12 µM. In test [1] (setting [3]), the “concentration giving almost complete inhibition of Ca2+ entry” value was 50 µM.
Consider `CCc1cc2c(cc1OS(N)(=O)=O)CCC1C2CCC2(C)C(OS(N)(=O)=O)CCC12` (centres unmarked) [STX243], for which the IC50 in test [1] (setting [2]) came out at 5.2 µM. Moreover, the “concentration giving almost complete inhibition of Ca2+ entry” value in test [1] (setting [3]) turned out to be 25 µM. Besides, the “IC50 fold smaller as compared to STX139” value in test [1] (Jurkat T cells, SOCE) is recorded as “approx. 2 fold”.
Turning to `CCc1cc2c(cc1O)CCC1C2CCC2(C)C(CC#N)CCC12` (centres unmarked) [STX505], in test [1] (setting [4]), the IC50 was determined as 1.7 µM.
Consider `COc1cc2c(cc1O)CCC1C2CCC2(C)C(CC#N)CCC12` (centres unmarked) [STX640], for which the IC50 in test [1] (setting [4]) worked out at 2.1 µM. For the same compound, the “fold more potent than the 17β-hydroxyl-compound (2ME2)” value in test [1] (Jurkat T cells, SOCE) turned out to be 10 fold.
As for `COc1cc2c(cc1OS(N)(=O)=O)CCC1C2CCC2(C)C(CC#N)CCC12` (centres unmarked) [STX641], in test [1] (setting [2]), the IC50 was 1.7 µM. In addition, the “fold more potent than the 17β-hydroxyl-compound (2ME2)” value in test [1] (Jurkat T cells, SOCE) was 10 fold.
With `CCc1cc2c(cc1O)CCC1C2CCC2(C)C(C[N+](=O)[O-])CCC12` (centres unmarked) [STX1175], the IC50 in test [1] (setting [2]) worked out at 1.4 µM.
As to `CCc1cc2c(cc1OS(N)(=O)=O)CCC1C2CCC2(C)C(C[N+](=O)[O-])CCC12` (centres unmarked) [STX1177], the 50% inhibitory concentration (IC50) was 1.3 µM in test [1] (setting [2]) and ~1 µM in test [1] (setting [5]).
For `CCc1cc2c(cc1O)CCC1C2CCC2(C)C(CC(C)=O)CCC12` (centres unmarked) [STX1306], the IC50 in test [1] (setting [2]) was determined as 1.6 µM.
With `CCc1cc2c(cc1OS(N)(=O)=O)CCC1C2CCC2(C)C(CC(C)=O)CCC12` (centres unmarked) [STX1307], the concentration for half-maximal inhibition (IC50) in test [1] (setting [2]) is 1.1 µM; in test [1] (setting [5]), ~1 µM.
Turning to `C/C=C(/C)C(=O)O[C@H]1C(C)=C2[C@H]([C@@H]1OC(=O)CCCCCCC)[C@@](C)(OC(C)=O)C[C@H](OC(=O)CCC)[C@@]1(O)[C@H]2OC(=O)[C@@]1(C)O` [thapsigargin], the “effect on IP3-evoked Ca2+ release” value in the test on IP3 receptors is listed as “eliminating effects of IP3”. For the same compound, the “effect on SERCA activity (initial slope of [Ca2+] upon ATP addition)” value with SERCA pumps was “almost completely abolished”.
